Data taken from BindingDB's records for doi:10.1021/jm00066a012 (Upjohn Laboratories, 1993).
pIC50: −log10 of the molar value.

test: In vitro inhibitory activity against ADP-induced human platelet aggregation

| pIC50 | Compound |
| --- | --- |
| 5.70 | Cc1c(OCc2nnnn2C(C)(C)C)ccc2c(=O)cc(N3CCOCC3)oc12 [7-(1-tert-Butyl-1H-tetrazol-5-ylmethoxy)-8-methyl-2-morpholin-4-yl-chromen-4-one] |
| 5.52 | C=Cc1c(OCCN2CCN(C)CC2)ccc2c(=O)cc(N3CCOCC3)oc12 [7-[2-(4-Methyl-piperazin-1-yl)-ethoxy]-2-morpholin-4-yl-8-vinyl-chromen-4-one] |
| < 4.12 | Cc1c(N2CCOCC2)oc2c(C)c(OCc3cccc4ccccc34)ccc2c1=O [3,8-Dimethyl-2-morpholin-4-yl-7-(naphthalen-1-ylmethoxy)-chromen-4-one] |
| 5.55 | Cc1c(OCc2nnnn2C)ccc2c(=O)cc(N3CCOCC3)oc12 [8-Methyl-7-(1-methyl-1H-tetrazol-5-ylmethoxy)-2-morpholin-4-yl-chromen-4-one] |
| 4.33 | COc1ccc(COc2ccc3c(=O)cc(N4CCOCC4)oc3c2C)cc1 [7-(4-Methoxy-benzyloxy)-8-methyl-2-morpholin-4-yl-chromen-4-one] |
| 5.40 | Cc1c(OCCN2CCNCC2)ccc2c(=O)cc(N3CCOCC3)oc12 [8-Methyl-2-morpholin-4-yl-7-(2-piperazin-1-yl-ethoxy)-chromen-4-one] |
| 5.85 | Cc1cc2c(=O)cc(N3CCOCC3)oc2c(C)c1OCCN1CCN(C)CC1 [6,8-Dimethyl-7-[2-(4-methyl-piperazin-1-yl)-ethoxy]-2-morpholin-4-yl-chromen-4-one] |
| < 4.12 | Cc1c(N2CCOCC2)oc2c(C)c(OCc3ccccc3)ccc2c1=O [7-Benzyloxy-3,8-dimethyl-2-morpholin-4-yl-chromen-4-one] |
| 6.07 | Cc1c(OCCN2CCN(C)CC2)ccc2c(=O)cc(N3CCOCC3)oc12 [7-[2-(4-methylpiperazin-1-yl)ethoxy]-8-methyl-2-morpholinyl chromone] |
| 4.16 | CCCc1c(OCCN2CCN(C)CC2)ccc2c(=O)cc(N3CCOCC3)oc12 [7-[2-(4-Methyl-piperazin-1-yl)-ethoxy]-2-morpholin-4-yl-8-propyl-chromen-4-one] |
| 4.40 | Cc1c(OCc2ccccc2)ccc2c(=O)cc(N3CCOCC3)oc12 [7-Benzyloxy-8-methyl-2-morpholin-4-yl-chromen-4-one] |
| 4.96 | Cc1c(OCCN2CCN(Cc3ccccc3)CC2)ccc2c(=O)cc(N3CCOCC3)oc12 [7-[2-(4-Benzyl-piperazin-1-yl)-ethoxy]-8-methyl-2-morpholin-4-yl-chromen-4-one] |
| 5.59 | CCN(CC)CCOc1ccc2c(=O)cc(N3CCOCC3)oc2c1C [7-(2-Diethylamino-ethoxy)-8-methyl-2-morpholin-4-yl-chromen-4-one] |
| < 4.12 | Cc1c(OCCN2CCN(c3ccccc3)CC2)ccc2c(=O)cc(N3CCOCC3)oc12 [8-Methyl-2-morpholin-4-yl-7-[2-(4-phenyl-piperazin-1-yl)-ethoxy]-chromen-4-one] |
| 4.23 | COC(=O)COc1ccc2c(=O)c(C)c(N3CCOCC3)oc2c1C [(3,8-Dimethyl-2-morpholin-4-yl-4-oxo-4H-chromen-7-yloxy)-acetic acid methyl ester] |
| 4.37 | CCN(CCOc1ccc2c(=O)cc(N3CCOCC3)oc2c1C)c1ccccc1 [7-[2-(Ethyl-phenyl-amino)-ethoxy]-8-methyl-2-morpholin-4-yl-chromen-4-one] |
| 4.39 | O=c1cc(N2CCOCC2)oc2cc(OCc3cccc4ccccc34)ccc12 [2-Morpholin-4-yl-7-(naphthalen-1-ylmethoxy)-chromen-4-one] |
| 5.30 | Cc1c(OCCN2CCCCC2)ccc2c(=O)cc(N3CCOCC3)oc12 [8-Methyl-2-morpholin-4-yl-7-(2-piperidin-1-yl-ethoxy)-chromen-4-one] |
| 4.89 | Cc1c(OCc2cccc3ccccc23)ccc2c(=O)cc(N3CCOCC3)oc12 [8-Methyl-2-morpholin-4-yl-7-(naphthalen-1-ylmethoxy)-chromen-4-one] |
| 5.40 | CCc1c(OCCN2CCN(C)CC2)ccc2c(=O)cc(N3CCOCC3)oc12 [8-Ethyl-7-[2-(4-methyl-piperazin-1-yl)-ethoxy]-2-morpholin-4-yl-chromen-4-one] |
| 4.85 | CCN(CCO)CCOc1ccc2c(=O)cc(N3CCOCC3)oc2c1C [7-{2-[Ethyl-(2-hydroxy-ethyl)-amino]-ethoxy}-8-methyl-2-morpholin-4-yl-chromen-4-one] |

| pIC50 | Compound |
| --- | --- |
| 4.28 | O=c1cc(N2CCOCC2)oc2cc(OCc3ccccn3)ccc12 [2-Morpholin-4-yl-7-(pyridin-2-ylmethoxy)-chromen-4-one] |
| 5.37 | Cc1c(OCCN2CCSCC2)ccc2c(=O)cc(N3CCOCC3)oc12 [8-Methyl-2-morpholin-4-yl-7-(2-thiomorpholin-4-yl-ethoxy)-chromen-4-one] |
| 4.37 | Cc1c(OCC(=O)c2ccccc2)ccc2c(=O)cc(N3CCOCC3)oc12 [8-Methyl-2-morpholin-4-yl-7-(2-oxo-2-phenyl-ethoxy)-chromen-4-one] |
| 4.72 | Cc1c(OCc2ccccn2)ccc2c(=O)cc(N3CCOCC3)oc12 [8-Methyl-2-morpholin-4-yl-7-(pyridin-2-ylmethoxy)-chromen-4-one] |
| 5.40 | Cc1c(OCc2cccnc2)ccc2c(=O)cc(N3CCOCC3)oc12 [8-Methyl-2-morpholin-4-yl-7-(pyridin-3-ylmethoxy)-chromen-4-one] |
| 4.39 | COc1ccc2c(=O)cc(N3CCOCC3)oc2c1C [7-Methoxy-8-methyl-2-morpholin-4-yl-chromen-4-one] |
| 5.05 | COC(=O)COc1ccc2c(=O)cc(N3CCOCC3)oc2c1C [(8-Methyl-2-morpholin-4-yl-4-oxo-4H-chromen-7-yloxy)-acetic acid methyl ester] |
| 5.40 | Cc1c(OCCN2CCCC2)ccc2c(=O)cc(N3CCOCC3)oc12 [8-Methyl-2-morpholin-4-yl-7-(2-pyrrolidin-1-yl-ethoxy)-chromen-4-one] |
| 4.36 | COc1ccccc1COc1ccc2c(=O)cc(N3CCOCC3)oc2c1C [7-(2-Methoxy-benzyloxy)-8-methyl-2-morpholin-4-yl-chromen-4-one] |
| 5.15 | COCCOc1ccc2c(=O)cc(N3CCOCC3)oc2c1C [7-(2-Methoxy-ethoxy)-8-methyl-2-morpholin-4-yl-chromen-4-one] |
| 4.92 | Cc1c(OCc2nnnn2C2CCCCC2)ccc2c(=O)cc(N3CCOCC3)oc12 [7-(1-Cyclohexyl-1H-tetrazol-5-ylmethoxy)-8-methyl-2-morpholin-4-yl-chromen-4-one] |
| 5.05 | C=CCc1c(OCCN2CCN(C)CC2)ccc2c(=O)cc(N3CCOCC3)oc12 [8-Allyl-7-[2-(4-methyl-piperazin-1-yl)-ethoxy]-2-morpholin-4-yl-chromen-4-one] |
| 4.19 | Cc1c(OCc2ccc3ccccc3c2)ccc2c(=O)cc(N3CCOCC3)oc12 [8-Methyl-2-morpholin-4-yl-7-(naphthalen-2-ylmethoxy)-chromen-4-one] |
| 4.24 | C=CCOc1ccc2c(=O)cc(N3CCOCC3)oc2c1C [7-Allyloxy-8-methyl-2-morpholin-4-yl-chromen-4-one] |
| 4.92 | Cc1c(OCCN2CCN(CCO)CC2)ccc2c(=O)cc(N3CCOCC3)oc12 [7-{2-[4-(2-Hydroxy-ethyl)-piperazin-1-yl]-ethoxy}-8-methyl-2-morpholin-4-yl-chromen-4-one] |
| 5.52 | Cc1c(OCCN2CCCCCC2)ccc2c(=O)cc(N3CCOCC3)oc12 [7-(2-Azepan-1-yl-ethoxy)-8-methyl-2-morpholin-4-yl-chromen-4-one] |
| 4.46 | CN1CCN(CCOc2ccc3c(=O)cc(N4CCOCC4)oc3c2)CC1 [7-[2-(4-Methyl-piperazin-1-yl)-ethoxy]-2-morpholin-4-yl-chromen-4-one] |
| 4.92 | CC(=O)COc1ccc2c(=O)cc(N3CCOCC3)oc2c1C [8-Methyl-2-morpholin-4-yl-7-(2-oxo-propoxy)-chromen-4-one] |
| 4.85 | CSCCOc1ccc2c(=O)cc(N3CCOCC3)oc2c1C [8-Methyl-7-(2-methylsulfanyl-ethoxy)-2-morpholin-4-yl-chromen-4-one] |
| 5.10 | Cc1c(OCc2nnnn2-c2ccccc2)ccc2c(=O)cc(N3CCOCC3)oc12 [8-Methyl-2-morpholin-4-yl-7-(1-phenyl-1H-tetrazol-5-ylmethoxy)-chromen-4-one] |
